From US9345655B2, “Oral care compositions” (BRIGHAM YOUNG UNIVERSITY, priority 2011, dated 2016) come the findings set out here.

One experiment deals with bacterial culture. The experiment in a line: Minimum inhibitory concentration (MIC), serial 2-fold dilution in 96-well plate. The conditions noted are these: overnight incubation in TSB, inoculum 0.2 OD. It counts as cell-based.
In a further experiment the test system is TNF-a. The experiment in a line: Anti-inflammatory activity, cytokine generation in HKPG-stimulated U937 macrophages. It counts as cell-based, Human. The conditions noted are these: 0.1 ppm; U937 macrophages stimulated with heat killed P. gingivalis. From the text:
(§1) The anti-inflammatory activity of a compound of Formula (II) is studied against six human inflammatory cytokines, PGE2, IL-1B, IL-6, IL-8, TNF-a, and GM-CSF in separate sets of experiments; first against PGE2, then against the five other cytokines Human monocyte U937 cells are differentiated to macrophages and then generation of cytokines is induced by stimulating the cells using heat killed P. gingivalis (HKPG, 1×10^8 cells). Different types of inflammatory cytokines are generated by U973 cells and released into the supernatant.

The next experiment has as its system IL-1B. The description is as above. The class given is cell-based, Human. Particulars: 0.1 ppm; U937 macrophages stimulated with heat killed P. gingivalis.
Description: as §1

A further experiment has as its system IL-6. The description is as above. The class given is cell-based, Human. Particulars: 0.1 ppm; U937 macrophages stimulated with heat killed P. gingivalis.
Description: as §1

One may read the MIC as the smallest concentration in the dilution series that meets the test's criterion for growth inhibition.

Description for bacterial culture: To evaluate minimum inhibitory concentrations (MICs), the concentration of the twenty four hour culture in log phase is adjusted by diluting in tryptic soy broth (TSB) so that an optical density of 0.2 at 610nm is obtained. The bacterial culture is then ready to be used for testing.
Three solutions are prepared: (1) 1% CPC solution in ethanol; (2) 1% solution of the Compound of Formula (II) in water; and (3) 0.5% of a Compound of Formula (II) +0.5% CPC. The solutions are diluted 1:9 in TSB. They are added to a 96-well plate and a serial dilution (2-fold) is made across the plate. The bacterial inoculum at 0.2 OD, 1000, is added to every well. The plate is incubated overnight and read on a plate reader the following day.

Take `CCCCCCCCNCCC[C@@H](C)[C@H]1CC[C@H]2C3[C@H](OCCCN)CC4C[C@H](OCCCN)CC[C@]4(C)[C@H]3C[C@H](OCCCN)[C@]12C` (stereo partly shown) [Compound of Formula (II)]: the MIC in the experiment with bacterial culture stood at 0.49 µg/mL. In the experiment with TNF-a, the “reduction of TNF-a” value is recorded as 80%. The “reduction of IL-10 (so in the source)” value with IL-1B came to 21%. For the same compound, in the experiment with IL-6, the “reduction of IL-6” value came to 60%.
